Data reported in ChEMBL document CHEMBL1127867, “5-Membered ring heterocyclic carboxylic acids as angiotensin II antagonists” (Bioorg Med Chem Lett, 1994).

Each compound was assayed against Angiotensin II receptor (Oryctolagus cuniculus) (assay: Tested in vitro for angiotensin II induced antagonistic activity in rabbit aorta, expressed as pA2).

SMILES | pA2
CCCCN(Cc1ccc(-c2ccccc2-c2nn[nH]n2)cc1)c1c(C(=O)O)ncn1C | 6.46
CCCc1nc(N(CCC)Cc2ccc(-c3ccccc3-c3nn[nH]n3)cc2)sc1C(=O)O | 7.43
CCCN(Cc1ccc(-c2ccccc2-c2nn[nH]n2)cc1)c1ncc(C(=O)O)s1 | 7.87
CCCCN(Cc1ccc(-c2ccccc2-c2nn[nH]n2)cc1)c1scnc1C(=O)O | 8.2
CCCCN(Cc1ccc(-c2ccccc2-c2nn[nH]n2)cc1)c1nnn(C)c1C(=O)O | 8.6
CCCc1nc(NCc2ccc(-c3ccccc3-c3nn[nH]n3)cc2)sc1C(=O)O | < 6
CCCCN(Cc1ccc(-c2ccccc2-c2nn[nH]n2)cc1)c1c(C(=O)O)cnn1C | < 7

More lines, now with the values ahead:

pA2 | SMILES
7.94 | CCCN(Cc1ccc(-c2ccccc2-c2nn[nH]n2)cc1)c1nn(C)cc1C(=O)O
9 | CCCN(Cc1ccc(-c2ccccc2-c2nn[nH]n2)cc1)c1nsnc1C(=O)O
7.56 | CCCN(Cc1ccc(-c2ccccc2-c2nn[nH]n2)cc1)c1nc(C(F)(F)F)c(C(=O)O)s1
8.36 | CCCCN(Cc1ccc(-c2ccccc2-c2nn[nH]n2)cc1)c1snnc1C(=O)O
7.34 | CCCCCCN(Cc1ccc(-c2ccccc2-c2nn[nH]n2)cc1)c1ncc(C(=O)O)s1
8.63 | CCCN(Cc1ccc(-c2ccccc2-c2nn[nH]n2)cc1)c1nc(C)c(C(=O)O)s1
8.86 | CCCCN(Cc1ccc(-c2ccccc2-c2nn[nH]n2)cc1)c1nnn(CCCC)c1C(=O)O
8.8 | CCCCN(Cc1ccc(-c2ccccc2-c2nn[nH]n2)cc1)c1ncc(C(=O)O)s1
< 6 | O=C(O)c1cnc(NCc2ccc(-c3ccccc3-c3nn[nH]n3)cc2)s1
